Here are results for 23 molecules from patent publication US12516038B2, “Inhibitors of antigen presentation by HLA-DR” (Janssen Pharmaceutica NV, priority 2020, dated 2026).

Assay [1] has as its system human peripheral blood CD4+ helper T cells. Briefly: Pan-CD4+ T cell activation (off-target assay). In kind it is cell-based. Particulars: Homo sapiens, T-cell, 24 h, anti-CD3/anti-CD28 stimulation, IL-2 production by ELISA. Put shortly: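 IL-2 secretion was measured by ELISA of culture supernatant after 24 h of TCR stimulation. Stimulation used anti-CD3 coated at 1 μg/mL and 1 μg/mL soluble anti-CD28 on human blood CD4+ helper T cells without HLA-DR-expressing APCs, with compound or vehicle present.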
For orientation: ELISA stands for enzyme-linked immunosorbent assay.

The next assay concerns the target HLA-DRB1*0401 (Homo sapiens (Human), UniProt P01903+P01911, A100K/A169T/DEL228-266/F76Y/I96L/K127E/L162R/M171V/N62H/P40V/Q125Y/R42H/S133A/S149N/S66Y/V115G/V209L/W38E). Description: HLA-DR4 HTRF assay. In kind it is binding. Particulars: inhibition of loading of Alexa Fluor 647-labeled Cit-CII peptide onto HLA-DR4 (CLIP cleaved). The method, boiled down: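 HLA-DRB1*04:01 construct (α/β fused to human Fc, CLIP pre-cleaved by HRV3C overnight at 4° C) at 3 nM was preincubated 45 min with compound and 1 nM anti-Fc-Tb donor, then 40 nM Alexa647-Cit-CII1236-1249 peptide added. After 90 min at 37° C, the 665/620 nm HTRF ratio gave % inhibition; IC50 by nonlinear regression.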
On the technique in general: In TR-FRET formats the signal depends on donor and acceptor labels being close together.

For assay [2], the system named is HLA-DR4 restricted mouse T cell hybridoma line (DR4.CII.36.8) with HLA-DRB1*04:01-expressing Boleth cells. Description: HLA-DR4-restricted peptide-specific T cell-based assay (hybridoma assay). Particulars: Mus musculus, T-cell, 6 h, inhibition of IL-2 production, CII259-273 peptide presented by Boleth cells. Put shortly:
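IC50 values derive from 4-parameter logistic fits of IL-2 AlphaLISA signal over 8-point duplicate titrations. Compound and HLA-DRB1*04:01 Boleth APCs were preincubated 1 h, 37° C., before adding CII259-273-restricted DR4.CII.36.8 hybridoma cells with peptide for 6 h at 37° C., in DMEM/1% FCS.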

Where only a bound is given, the exact number is not on record here.

A word on the IC50: it is the concentration needed to halve the response being measured. Take `N#Cc1c(O[C@H](c2ccncc2)c2ccc(C(N)=O)cc2)ccc2c1OCCC2=O` (single isomer, unassigned) [Example 78b, (*S)-4-(((8-cyano-4-oxochroman-7-yl)oxy)(pyridin-4-yl)methyl)benzamide]: the IC50 stood at 15000 nM in assay [1], 450 nM against HLA-DRB1*0401 and 470 nM in assay [2].
The matching figures for `NC(=O)c1ccc([C@@H](Oc2ccc3c(c2-c2ccc(-c4ccccc4)cc2)OCCC3=O)c2ccncc2)cc1` (single isomer, unassigned) [Example 79a, (*R)-4-(((8-([1,1′-biphenyl]-4-yl)-4-oxochroman-7-yl)oxy)(pyridin-4-yl)methyl)benzamide]: 3100 nM, 28000 nM and 470 nM.
On the same counts, the results for `NC(=O)c1ccc([C@H](Oc2ccc3c(c2-c2ccc(-c4ccccc4)cc2)OCCC3=O)c2ccncc2)cc1` (single isomer, unassigned) [Example 79b, (*S)-4-(((8-([1,1′-biphenyl]-4-yl)-4-oxochroman-7-yl)oxy)(pyridin-4-yl)methyl)benzamide] are greater than 15000 nM, 49000 nM and 970 nM.
As to `CCCc1c(O[C@@H](c2ccncc2)c2ccc(C(N)=O)cc2)ccc2c1OCCC2=O` (single isomer, unassigned) [Example 80a, (*R)-4-(((4-Oxo-8-propylchroman-7-yl)oxy)(pyridin-4-yl)methyl)benzamide], the IC50 in assay [1] was 5900 nM; on HLA-DRB1*0401, 660 nM; in assay [2], 32 nM.
The matching figures for `Cc1c(O[C@H](c2ccncc2)c2cccc(CNC(N)=O)c2)ccc2c1OCCC2=O` (single isomer, unassigned) [Example 81b, (*S)-1-(3-(((8-methyl-4-oxochroman-7-yl)oxy)(pyridin-4-yl)methyl)benzyl)urea]: greater than 15000 nM, 610 nM and 1300 nM.
Regarding `CCOc1cc(C(N)=O)ccc1[C@H](Oc1ccc2c(c1C)OCCC2=O)c1ccncc1` (single isomer, unassigned) [Example 83a, (*R)-3-ethoxy-4-(((8-methyl-4-oxochroman-7-yl)oxy)(pyridin-4-yl)methyl)benzamide], the values for the IC50 (in assay [1]; on HLA-DRB1*0401; in assay [2]) were 990 nM, 950 nM and 2700 nM, respectively.
For the molecule `Cc1c(O[C@H](c2ccncc2)c2ccc(C(N)=O)cc2OC(C)C)ccc2c1OCCC2=O` (single isomer, unassigned) [Example 84a, (*R)-3-isopropoxy-4-(((8-methyl-4-oxochroman-7-yl)oxy)(pyridin-4-yl)methyl)benzamide], the results for the IC50 (in assay [1]; on HLA-DRB1*0401; in assay [2]) were 470 nM, 1200 nM and 790 nM, respectively.
For the molecule `Cc1c(O[C@@H](c2ccncc2)c2ccc(C(N)=O)cc2OC(C)C)ccc2c1OCCC2=O` (single isomer, unassigned) [Example 84b, (*S)-3-isopropoxy-4-(((8-methyl-4-oxochroman-7-yl)oxy)(pyridin-4-yl)methyl)benzamide], the IC50 in assay [1] was 1700 nM; on HLA-DRB1*0401, less than 1000 nM; in assay [2], 6500 nM.
The matching figures for `Cc1c(O[C@H](c2ccncc2)c2ccc(C(N)=O)cc2OCC(C)C)ccc2c1OCCC2=O` (single isomer, unassigned) [Example 85a, (*R)-3-isobutoxy-4-(((8-methyl-4-oxochroman-7-yl)oxy)(pyridin-4-yl)methyl)benzamide]: 3700 nM, 810 nM and 240 nM.
The matching figures for `Cc1c(O[C@@H](c2ccncc2)c2ccc(C(N)=O)cc2OCC(C)C)ccc2c1OCCC2=O` (single isomer, unassigned) [Example 85b, (*S)-3-isobutoxy-4-(((8-methyl-4-oxochroman-7-yl)oxy)(pyridin-4-yl)methyl)benzamide]: 470 nM, 1100 nM and 3900 nM.
For `Cc1c(O[C@H](c2ccncc2)c2ccc(C(N)=O)cc2OCc2ccccc2)ccc2c1OCCC2=O` (single isomer, unassigned) [Example 86a, (*R)-3-(benzyloxy)-4-(((8-methyl-4-oxochroman-7-yl)oxy)(pyridin-4-yl)methyl)benzamide], the IC50 in assay [1] came to 2500 nM; against HLA-DRB1*0401, 740 nM; in assay [2], 72 nM.
On the same counts, the results for `Cc1c(O[C@@H](c2ccncc2)c2ccc(C(N)=O)cc2OCc2ccccc2)ccc2c1OCCC2=O` (single isomer, unassigned) [Example 86b, (*S)-3-(benzyloxy)-4-(((8-methyl-4-oxochroman-7-yl)oxy)(pyridin-4-yl)methyl)benzamide] are 1400 nM, 1000 nM and 1700 nM.
On the same counts, the results for `Cc1c(O[C@H](c2ccc(C(N)=O)cc2)c2ccnc(CCC(=O)O)c2)ccc2c1OCCC2=O` (single isomer, unassigned) [Example 87a] are greater than 15000 nM, 580 nM and 830 nM.
On the same counts, the results for `Cc1cc2c(c(C)c1O[C@@H](c1ccncc1)c1ccc(C#N)cc1)OCCC2=O` (single isomer, unassigned) [Example 88a, (*R)-4-(((6,8-dimethyl-4-oxochroman-7-yl)oxy)(pyridin-4-yl)methyl)benzonitrile] are greater than 15000 nM, 400 nM and 2200 nM.
Regarding `Cc1cc2c(c(C)c1O[C@H](c1ccncc1)c1ccc(C#N)cc1)OCCC2=O` (single isomer, unassigned) [Example 88b, (*S)-4-(((6,8-dimethyl-4-oxochroman-7-yl)oxy)(pyridin-4-yl)methyl)benzonitrile], the IC50 worked out at 9900 nM in assay [1], 360 nM against HLA-DRB1*0401 and 5900 nM in assay [2].
On the same counts, the results for `Cc1cc2c(c(C)c1O[C@@H](c1ccncc1)c1ccc(C(N)=O)cc1)OCCC2=O` (single isomer, unassigned) [Example 89a, (*R)-4-(((6,8-dimethyl-4-oxochroman-7-yl)oxy)(pyridin-4-yl)methyl)benzamide] are 4700 nM, 470 nM and 1800 nM.
On the same counts, the results for `Cc1cc2c(c(C)c1O[C@H](c1ccncc1)c1ccc(C(N)=O)cc1)OCCC2=O` (single isomer, unassigned) [Example 89b, (*S)-4-(((6,8-dimethyl-4-oxochroman-7-yl)oxy)(pyridin-4-yl)methyl)benzamide] are 4700 nM, 470 nM and 1200 nM.
The matching figures for `Cc1c(O[C@H](c2ccc(C(N)=O)cc2)c2cccc(C#N)c2)c(F)cc2c1OCCC2=O` (single isomer, unassigned) [Example 92a, (*R)-4-((3-cyanophenyl)((6-fluoro-8-methyl-4-oxochroman-7-yl)oxy)methyl)benzamide]: 9900 nM, 300 nM and 310 nM.
Take `Cc1cc([C@H](Oc2c(F)cc3c(c2C)OCCC3=O)c2ccc(C(N)=O)cc2)cc(C)n1` (single isomer, unassigned) [Example 94a, (*R)-4-((2,6-dimethylpyridin-4-yl)((6-fluoro-8-methyl-4-oxochroman-7-yl)oxy)methyl)benzamide]: the IC50 is 9900 nM in assay [1], 220 nM on HLA-DRB1*0401 and 47 nM in assay [2].
On the same counts, the results for `Cc1cc([C@@H](Oc2c(F)cc3c(c2C)OCCC3=O)c2ccc(C(N)=O)cc2)cc(C)n1` (single isomer, unassigned) [Example 94b, (*S)-4-((2,6-dimethylpyridin-4-yl)((6-fluoro-8-methyl-4-oxochroman-7-yl)oxy)methyl)benzamide] are 9900 nM, 230 nM and 890 nM.
Take `CCc1cc(O[C@@H](c2ccncc2)c2ccc(C(N)=O)cc2)cc2c1C(=O)CCO2` (single isomer, unassigned) [Example 99a, (*R)-4-(((5-ethyl-4-oxochroman-7-yl)oxy)(pyridin-4-yl)methyl)benzamide]: the values for the IC50 (in assay [1]; against HLA-DRB1*0401; in assay [2]) were 3100 nM, 42000 nM and 590 nM, respectively.
On the same counts, the results for `NC(=O)c1ccc([C@@H](Oc2ccc3c(c2Br)OCCC3=O)c2ccncc2)cc1` (single isomer, unassigned) [Example 102a, (*R)-4-(((8-bromo-4-oxochroman-7-yl)oxy)(pyridin-4-yl)methyl)benzamide] are 15000 nM, 78000 nM and 99 nM.
On the same counts, the results for `NC(=O)c1ccc([C@H](Oc2ccc3c(c2Br)OCCC3=O)c2ccncc2)cc1` (single isomer, unassigned) [Example 102b, (*S)-4-(((8-bromo-4-oxochroman-7-yl)oxy)(pyridin-4-yl)methyl)benzamide] are greater than 15000 nM, greater than 89000 nM and 91 nM.
